Measurements from patent US20230233569A1 (Revolution Medicines, Inc., priority 2020, published 2023).
Where two headings read alike, the source gives them in different places.

How the values were obtained:
NRAS Q61R = NRAS Q61R (Homo sapiens, UniProt P01111+P62937, Q61R); test: Disruption of BRAF RBD interaction with Ras (FRET / MOA assay, with Cyclophilin A); type: biochemical; conditions: NRAS Q61R; read-out: NRAS Q61R FRET data IC50
Source text: Disruption of B-Raf Ras-Binding Domain (BRAF^RBD) Interaction with K-Ras by Compounds of the Invention (Also Called a FRET Assay or an MOA Assay)
Note—The following protocol describes a procedure for monitoring disruption of K-Ras G12C (GMP-PNP) binding to BRAF^RBD by a compound of the invention. This protocol may also be executed substituting other Ras proteins or nucleotides.
The purpose of this biochemical assay was to measure the ability of test compounds to facilitate ternary complex formation between a nucleotide-loaded K-Ras isoform and Cyclophilin A; the resulting ternary complex disrupts binding to a BRAF^RBD construct, inhibiting K-Ras signaling through a RAF effector. Data is reported as IC50 values.
In assay buffer containing 25 mM HEPES pH 7.3, 0.002% Tween20, 0.1% BSA, 100 mM NaCl and 5 mM MgCl2, tagless Cyclophilin A, His6-K-Ras-GMPPNP, and GST-BRAF^RBD were combined in a 384-well assay plate at final concentrations of 25 μM, 12.5 nM and 50 nM, respectively. Compound was present in plate wells as a 10-point 3-fold dilution series starting at a final concentration of 30 μM. After incubation at 25° C. for 3 hours, a mixture of Anti-His Eu-W1024 and anti-GST allophycocyanin was then added to assay sample wells at final concentrations of 10 nM and 50 nM, respectively, and the reaction incubated for an additional 1.5 hours. […] Compounds that facilitate disruption of a K-Ras:RAF complex were identified as those eliciting a decrease in the TR-FRET ratio relative to DMSO control wells.
The purpose of this biochemical assay was to measure the ability of test compounds to facilitate ternary complex formation between a nucleotide-loaded K-Ras isoform and Cyclophilin A; the resulting ternary complex disrupts binding to a BRAF^RBDD construct, inhibiting K-Ras signaling through a RAF effector. Data is reported as IC50 values.

Capan-1 (K-Ras G12V) = test: CellTiter-Glo cell viability assay, 5-day treatment; type: cell-based; conditions: Homo sapiens, CAPAN-1, 120 h, 5-day treatment; read-out: Capan-1 Cell Viability assay data (K-Ras G12V, IC50)
Method in brief: (§1)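 Viability is read as luminescence on day 5 after direct compound addition to plated cells, following about 30 minutes' room-temperature equilibration. Each signal is scaled to mean DMSO as 100%.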

NCI-H358 (K-Ras G12C) = test: as above; type: cell-based; conditions: Homo sapiens, NCI-H358, 120 h, 5-day treatment; read-out: H358 Cell Viability assay data (K-Ras G12C, IC50)
Method in brief: as §1

KRAS G13D = KRAS G13D (Homo sapiens, UniProt P01116+P62937, G13D); test: Disruption of BRAF RBD interaction with Ras (FRET / MOA assay, with Cyclophilin A); type: biochemical
Sequence of KRAS G13D (P01116 1-169 isoform P01116-2 G13D limits assumed): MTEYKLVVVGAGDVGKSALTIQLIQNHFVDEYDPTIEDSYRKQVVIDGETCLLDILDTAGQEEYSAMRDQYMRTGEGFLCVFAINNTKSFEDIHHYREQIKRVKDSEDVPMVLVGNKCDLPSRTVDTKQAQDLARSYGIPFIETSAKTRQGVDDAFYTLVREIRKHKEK
Sequence of KRAS G13D (P62937 whole entry): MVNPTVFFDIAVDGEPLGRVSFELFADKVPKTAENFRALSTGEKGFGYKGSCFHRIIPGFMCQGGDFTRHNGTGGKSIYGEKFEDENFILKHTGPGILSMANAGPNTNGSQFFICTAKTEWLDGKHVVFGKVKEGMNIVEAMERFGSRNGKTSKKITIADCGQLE
Method in brief: (§2)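 First, compounds at a ten-point threefold dilution series (highest final concentration 30 μM) were incubated with nucleotide-loaded K-Ras, Cyclophilin A and BRAF RBD for 3 h at 25 °C. Next, detection antibodies were added for 1.5 h. Finally, IC50 was calculated from TR-FRET ratio decreases against DMSO controls.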

KRAS WT = KRAS WT (Homo sapiens, UniProt P01116+P62937); test: as above; type: biochemical
Sequence of KRAS WT (P01116 1-169 isoform P01116-2 limits assumed): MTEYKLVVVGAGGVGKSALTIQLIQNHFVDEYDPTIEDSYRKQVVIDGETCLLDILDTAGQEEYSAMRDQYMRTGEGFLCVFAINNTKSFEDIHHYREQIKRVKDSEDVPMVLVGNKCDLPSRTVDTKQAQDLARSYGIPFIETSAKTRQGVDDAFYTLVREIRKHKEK
Sequence of KRAS WT (P62937 whole entry): as the sequence (P62937 whole entry) above
Method in brief: as §2

KRAS G12C = KRAS G12C (Homo sapiens, UniProt P01116+P62937, G12C); test: as above; type: biochemical
Sequence of KRAS G12C (P01116 1-169 isoform P01116-2 G12C): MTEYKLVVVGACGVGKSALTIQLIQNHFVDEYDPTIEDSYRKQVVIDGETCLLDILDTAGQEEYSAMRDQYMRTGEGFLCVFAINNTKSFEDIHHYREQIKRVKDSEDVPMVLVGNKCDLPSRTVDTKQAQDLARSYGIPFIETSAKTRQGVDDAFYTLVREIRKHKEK
Sequence of KRAS G12C (P62937 whole entry): as the sequence (P62937 whole entry) above
Method in brief: as §2

KRAS G12V = KRAS G12V (Homo sapiens, UniProt P01116+P62937, G12V); test: as above; type: biochemical
Sequence of KRAS G12V (P01116 1-169 isoform P01116-2 G12V limits assumed): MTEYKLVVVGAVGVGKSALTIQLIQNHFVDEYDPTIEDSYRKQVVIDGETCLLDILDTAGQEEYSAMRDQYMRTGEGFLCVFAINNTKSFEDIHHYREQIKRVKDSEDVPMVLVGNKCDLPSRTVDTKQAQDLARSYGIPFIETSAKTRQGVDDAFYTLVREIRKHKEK
Sequence of KRAS G12V (P62937 whole entry): as the sequence (P62937 whole entry) above
Method in brief: as §2

KRAS G12D = KRAS G12D (Homo sapiens, UniProt P01116+P62937, G12D); test: as above; type: biochemical
Sequence of KRAS G12D (P01116 1-169 isoform P01116-2 G12D limits assumed): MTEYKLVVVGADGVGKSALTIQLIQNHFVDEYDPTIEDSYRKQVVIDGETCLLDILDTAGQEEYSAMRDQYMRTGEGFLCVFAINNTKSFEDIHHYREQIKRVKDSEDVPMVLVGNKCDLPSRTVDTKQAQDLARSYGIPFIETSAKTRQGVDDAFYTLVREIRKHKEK
Sequence of KRAS G12D (P62937 whole entry): as the sequence (P62937 whole entry) above
Method in brief: as §2

NRAS G12C = NRAS G12C (Homo sapiens, UniProt P01111+P62937, G12C); test: as above; type: biochemical
Sequence of NRAS G12C (P01111 whole entry G12C): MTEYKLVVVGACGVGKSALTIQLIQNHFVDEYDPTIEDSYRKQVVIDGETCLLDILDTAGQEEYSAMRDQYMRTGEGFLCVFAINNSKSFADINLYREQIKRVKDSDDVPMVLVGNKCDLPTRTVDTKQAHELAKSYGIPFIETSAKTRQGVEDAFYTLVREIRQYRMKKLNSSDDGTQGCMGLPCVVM
Sequence of NRAS G12C (P62937 whole entry): as the sequence (P62937 whole entry) above

KRAS G13C = KRAS G13C (Homo sapiens, UniProt P01116+P62937, G13C); test: as above; type: biochemical
Sequence of KRAS G13C (P01116 1-169 isoform P01116-2 G13C): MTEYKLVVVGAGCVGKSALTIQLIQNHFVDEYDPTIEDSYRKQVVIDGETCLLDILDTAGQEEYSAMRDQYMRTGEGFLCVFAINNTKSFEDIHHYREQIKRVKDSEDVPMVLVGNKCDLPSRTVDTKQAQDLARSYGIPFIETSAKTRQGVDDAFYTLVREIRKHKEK
Sequence of KRAS G13C (P62937 whole entry): as the sequence (P62937 whole entry) above
Method in brief: as §2

KRAS G12S = KRAS G12S (Homo sapiens, UniProt P01116+P62937, G12S); test: as above; type: biochemical
Sequence of KRAS G12S (P01116 1-169 isoform P01116-2 G12S limits assumed): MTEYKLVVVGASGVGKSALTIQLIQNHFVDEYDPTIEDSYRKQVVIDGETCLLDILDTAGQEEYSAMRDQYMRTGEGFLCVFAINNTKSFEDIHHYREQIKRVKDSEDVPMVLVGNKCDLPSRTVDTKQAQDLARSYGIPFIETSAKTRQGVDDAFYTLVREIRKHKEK
Sequence of KRAS G12S (P62937 whole entry): as the sequence (P62937 whole entry) above
Method in brief: as §2

[1] = KRAS G13D, read-out: KRAS G13D FRET data IC50
[2] = KRAS WT, read-out: KRAS WT FRET data IC50
[3] = read-out: KRAS G12C FRET data, IC50
[4] = KRAS G12V, read-out: KRAS G12V FRET data IC50
[5] = read-out: KRAS G12D FRET data, IC50
[6] = NRAS G12C, read-out: NRAS G12C FRET data IC50
[7] = read-out: KRAS G13C FRET data, IC50
[8] = read-out: KRAS G12S FRET data, IC50

Measured: IC50

Sequence of NRAS Q61R (P01111 whole entry Q61R, the tested form may be a part): as the sequence (P01111 whole entry G12C) above, with C12G, Q61R counted along it
Sequence of NRAS Q61R (P62937 whole entry, the tested form may be a part): as the sequence (P62937 whole entry) above

CCn1c(-c2cccnc2[C@H](C)OC)c2c3cc(ccc31)-c1csc(n1)C[C@H](NC(=O)[C@H](C(C)C)N(C)C(=O)N1CCO[C@H](C)C1)C(=O)N1CCC[C@H](N1)C(=O)OCC(C)(C)C2 [Example A310]
10 to 100 nM: NRAS Q61R

CCn1c(-c2cnccc2COC)c2c3cc(ccc31)-c1cc(O)cc(c1)C[C@H](NC(=O)[C@H](C(C)C)N(C)C(=O)CO)C(=O)N1CCC[C@H](N1)C(=O)OCC(C)(C)C2 [Example A43, (2S)—N-[(8S,14S)-22-ethyl-4-hydroxy-21-[4-(methoxymethyl)pyridin-3-yl]-18,18-dimethyl-9,15-dioxo-16-oxa-10,22,28-triazapentacyclo[18.5.2.1^2,6.1^10,14.0^23,27]nonacosa-1(26),2,4,6(29),20,23(27),24-heptaen-8-yl]-2-(2-hydroxy-N-methylacetamido)-3-methylbutanamide]
1000 to 10000 nM: Capan-1 (K-Ras G12V) | NCI-H358 (K-Ras G12C) | KRAS G12D; KRAS G12D FRET data, IC50
100 to 1000 nM: KRAS G13D; KRAS G13D FRET data IC50, KRAS G13D | KRAS WT; KRAS WT FRET data IC50, KRAS WT | KRAS G12C; KRAS G12C FRET data, IC50 | KRAS G12V; KRAS G12V FRET data IC50, KRAS G12V | NRAS G12C; NRAS G12C FRET data IC50, NRAS G12C | KRAS G13C; KRAS G13C FRET data, IC50 | KRAS G12S; KRAS G12S FRET data, IC50

CCn1c(-c2cnccc2COC)c2c3cc(ccc31)-c1cc(O)cc(c1)C[C@H](NC(=O)[C@H](C(C)C)N(C)C(=O)[C@H]1CCN(C(=O)C(C)C)C1)C(=O)N1CCC[C@H](N1)C(=O)OCC(C)(C)C2 [Example A29]
> 10000 nM: KRAS G12D; [5]
1000 to 10000 nM: Capan-1 (K-Ras G12V) | KRAS G13D; [1] | KRAS WT; [2] | KRAS G13C; [7]
100 to 1000 nM: NCI-H358 (K-Ras G12C) | KRAS G12C; [3] | KRAS G12V; [4] | NRAS G12C; [6] | KRAS G12S; [8]

CCn1c(-c2cccnc2[C@H](C)OC)c2c3cc(ccc31)-c1cc(O)cc(c1)C[C@H](NC(=O)[C@H](C(C)C)N(C)C(=O)[C@@H]1CCNC1)C(=O)N1CCC[C@H](N1)C(=O)OCC(C)(C)C2 [Example A129]
100 to 1000 nM: KRAS G12V; [4]
10 to 100 nM: KRAS G13D; [1] | KRAS WT; [2] | KRAS G12C; [3] | KRAS G12D; [5] | NRAS G12C; [6] | KRAS G13C; [7] | KRAS G12S; [8]
1000 to 10000 nM: Capan-1 (K-Ras G12V) | NCI-H358 (K-Ras G12C)

CCn1c(-c2cccnc2[C@H](C)OC)c2c3cc(ccc31)-c1cc(O)cc(c1)C[C@H](NC(=O)[C@H](C(C)C)N(C)C(=O)[C@H]1CCN(C(=O)[C@@H]3CCCN3C)C1)C(=O)N1CCC[C@H](N1)C(=O)OCC(C)(C)C2 [Example A385]
10 to 100 nM: KRAS G13D; [1] | KRAS WT; [2] | KRAS G12C; [3] | KRAS G12V; [4] | KRAS G12D; [5] | NRAS G12C; [6] | KRAS G13C; [7] | KRAS G12S; [8]
100 to 1000 nM: Capan-1 (K-Ras G12V) | NCI-H358 (K-Ras G12C)

CCn1c(-c2cccnc2[C@H](C)OC)c2c3cc(ccc31)-c1cc(O)cc(c1)C[C@H](NC(=O)[C@H](C(C)C)N(C)C(=O)C1CC13CCNC3)C(=O)N1CCC[C@H](N1)C(=O)OCC(C)(C)C2 (some centres unmarked) [Example A148]
1000 to 10000 nM: Capan-1 (K-Ras G12V) | NCI-H358 (K-Ras G12C)
100 to 1000 nM: KRAS G12V; [4]
10 to 100 nM: KRAS G13D; [1] | KRAS WT; [2] | KRAS G12C; [3] | KRAS G12D; [5] | NRAS G12C; [6] | KRAS G13C; [7] | KRAS G12S; [8]

CCn1c(-c2cccnc2[C@H](C)OC)c2c3cc(ccc31)-c1csc(n1)C[C@H](NC(=O)[C@H](C1CCCC1)N(C)C(C)=O)C(=O)N1CCC[C@H](N1)C(=O)OCC(C)(C)C2 [Example A141]
10 to 100 nM: Capan-1 (K-Ras G12V) | NCI-H358 (K-Ras G12C)
> 10000 nM: KRAS G12D; [5]
1000 to 10000 nM: KRAS G13D; [1] | KRAS WT; [2] | KRAS G12C; [3] | KRAS G12V; [4] | NRAS G12C; [6] | KRAS G13C; [7] | KRAS G12S; [8]

CCN(C(=O)N(C)[C@H](C(=O)N[C@H]1Cc2nc(cs2)-c2ccc3c(c2)c(c(-c2cccnc2[C@H](C)OC)n3CC)CC(C)(C)COC(=O)[C@@H]2CCCN(N2)C1=O)C(C)C)C(C)C [Example A333]
10 to 100 nM: NCI-H358 (K-Ras G12C) | KRAS WT; [2] | KRAS G12C; [3] | NRAS G12C; [6]
100 to 1000 nM: Capan-1 (K-Ras G12V) | KRAS G13D; [1] | KRAS G12V; [4] | KRAS G12D; [5] | KRAS G13C; [7] | KRAS G12S; [8]

CCC[C@H]1CCN1C(=O)N[C@H]1Cc2nc(cs2)-c2ccc3c(c2)c(c(-c2cccnc2[C@H](C)OC)n3CC)CC(C)(C)COC(=O)[C@@H]2CCCN(N2)C1=O [Example A264]
100 to 1000 nM: NRAS Q61R

CCn1c(-c2cccnc2[C@H](C)OC)c2c3cc(ccc31)-c1cc(O)cc(c1)C[C@H](NC(=O)[C@H](C(C)C)N(C)C(=O)[C@H]1CCN(C(=O)CNC)C1)C(=O)N1CCC[C@H](N1)C(=O)OCC(C)(C)C2 (atropisomer, axis not shown) [Example A120]
100 to 1000 nM: KRAS G13D; [1] | KRAS WT; [2] | KRAS G12V; [4] | KRAS G13C; [7]
1000 to 10000 nM: NCI-H358 (K-Ras G12C)
10 to 100 nM: KRAS G12C; [3] | KRAS G12D; [5] | NRAS G12C; [6] | KRAS G12S; [8]
> 10000 nM: Capan-1 (K-Ras G12V)

CCn1c(-c2cccnc2[C@H](C)OC)c2c3cc(ccc31)-c1csc(n1)C[C@H](NC(=O)[C@H](C(C)C)N(C)C(=O)N1CCN(C)C3(CC3)C1)C(=O)N1CCC[C@H](N1)C(=O)OCC(C)(C)C2 [Example A311]
10 to 100 nM: NCI-H358 (K-Ras G12C)
100 to 1000 nM: Capan-1 (K-Ras G12V) | KRAS G13D; [1] | KRAS WT; [2] | KRAS G12C; [3] | KRAS G12V; [4] | KRAS G12D; [5] | NRAS G12C; [6] | KRAS G13C; [7] | KRAS G12S; [8]
